Measurements reported in ChEMBL document CHEMBL1201862, “PubChem BioAssay data set” (2004).
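In this assay, cells in 96-well plates receive the compound at five concentrations for 48 hours. Endpoints are linearly interpolated between the surrounding concentrations. GI50 = concentration required for 50% inhibition of growth.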 Activity calls are given as the source filed them. No stated cut-off is given here; in the data, active = GI50 up to about 1.1 µM and inactive = higher. Where a SMILES comes first, the peptide text is derived from it. The star is where a group is joined. Cbz = O=C(OCc1ccccc1)*; Bn = c1ccc(C*)cc1

Legend:
Assay in all cases: growth of human tumour cells (NCI), 48 h
A498 = tested on: A498
A549 = tested on: A549
BT-549 = tested on: BT-549
DU-145 = tested on: DU-145
HCT-116 = tested on: HCT-116
HOP-62 = tested on: HOP-62
Hs-578T = tested on: Hs-578T
M14 = tested on: M14
MDA-MB-435 = tested on: MDA-MB-435
NCI-H226 = tested on: NCI-H226
PC-3 = tested on: PC-3
T47D = tested on: T47D
U-251 = tested on: U-251
MCF7 = tested on: MCF7
SR = tested on: SR
SF-539 = tested on: SF-539

SMILES	GI50 (A498)	GI50 (A549)	GI50 (BT-549)	GI50 (DU-145)	GI50 (HCT-116)	GI50 (HOP-62)	GI50 (Hs-578T)	GI50 (M14)	GI50 (MDA-MB-435)	GI50 (NCI-H226)	GI50 (PC-3)	GI50 (T47D)	GI50 (U-251)	GI50 (MCF7)	GI50 (SR)	GI50 (SF-539)
Cn1c(=O)c2c(nc(Cc3ccccc3)n2CC(=O)O)n(C)c1=O	> 100 µM (inactive)	> 100 µM (inactive)	> 100 µM (inactive)	> 100 µM (inactive)	> 100 µM (inactive)	> 100 µM (inactive)	> 100 µM (inactive)	> 100 µM (inactive)	> 100 µM (inactive)	> 100 µM (inactive)	> 100 µM (inactive)	> 100 µM (inactive)	> 100 µM (inactive)	–	–	–
Cc1ccc(S(=O)(=O)NCCSCCNS(=O)(=O)c2ccc(C)cc2)cc1	> 100 µM (inactive)	> 100 µM (inactive)	–	> 100 µM (inactive)	> 100 µM (inactive)	–	> 100 µM (inactive)	> 100 µM (inactive)	> 100 µM (inactive)	> 100 µM (inactive)	> 100 µM (inactive)	> 100 µM (inactive)	> 100 µM (inactive)	> 100 µM (inactive)	> 100 µM (inactive)	–
O=P(O)(O)CN1CCN(CP(=O)(O)O)CCN(CP(=O)(O)O)CCN(CP(=O)(O)O)CC1	62.5 µM (inactive)	58.5 µM (inactive)	35.6 µM (inactive)	> 100 µM (inactive)	36.4 µM (inactive)	> 100 µM (inactive)	> 100 µM (inactive)	> 100 µM (inactive)	> 100 µM (inactive)	> 100 µM (inactive)	87.3 µM (inactive)	> 100 µM (inactive)	45.6 µM (inactive)	53.6 µM (inactive)	10.5 µM (inactive)	70.5 µM (inactive)
COc1ccc2cc(/C=N\NC(=O)Nc3cccc4ccccc34)ccc2c1	17.5 µM (inactive)	> 100 µM (inactive)	49.4 µM (inactive)	58.2 µM (inactive)	16.6 µM (inactive)	15.3 µM (inactive)	30.5 µM (inactive)	33.4 µM (inactive)	50.6 µM (inactive)	28.2 µM (inactive)	33.7 µM (inactive)	–	16.4 µM (inactive)	20.3 µM (inactive)	16.1 µM (inactive)	30.5 µM (inactive)
Cc1ccc(-c2c(C#N)c(N)nc3c2CCS(=O)(=O)c2ccccc2-3)cc1	> 100 µM (inactive)	> 100 µM (inactive)	95.3 µM (inactive)	74.6 µM (inactive)	> 100 µM (inactive)	–	58.1 µM (inactive)	–	> 100 µM (inactive)	66.1 µM (inactive)	78.9 µM (inactive)	55.5 µM (inactive)	68.2 µM (inactive)	–	–	–
CC(C)OP(=O)(OC(C)C)c1ccc2c(c1)OCCOCCOCCOCCO2	> 100 µM (inactive)	> 100 µM (inactive)	> 100 µM (inactive)	> 100 µM (inactive)	> 100 µM (inactive)	> 100 µM (inactive)	> 100 µM (inactive)	> 100 µM (inactive)	> 100 µM (inactive)	> 100 µM (inactive)	> 100 µM (inactive)	> 100 µM (inactive)	–	> 100 µM (inactive)	> 100 µM (inactive)	> 100 µM (inactive)
COc1ccc2c(c1)CCC(CN1CCN(CCOC(c3ccccc3)c3ccccc3)CC1)C2O (configuration not stated)	10.5 µM (inactive)	18.2 µM (inactive)	14 µM (inactive)	20.1 µM (inactive)	12.2 µM (inactive)	19 µM (inactive)	19.3 µM (inactive)	14.2 µM (inactive)	16.6 µM (inactive)	16.3 µM (inactive)	13.5 µM (inactive)	16.1 µM (inactive)	14.8 µM (inactive)	18.9 µM (inactive)	16.7 µM (inactive)	11.3 µM (inactive)
CC(=O)N1OC(C)CC1Nc1ccc(Br)cc1 (configuration not stated)	> 100 µM (inactive)	9.12 µM (inactive)	65.3 µM (inactive)	0.493 µM (active)	4.03 µM (inactive)	0.366 µM (active)	> 100 µM (inactive)	1.6 µM (inactive)	0.577 µM (active)	4.39 µM (inactive)	1.04 µM (active)	1.34 µM (inactive)	1.99 µM (inactive)	21.5 µM (inactive)	1.42 µM (inactive)	5.77 µM (inactive)
O=C(Cc1ccccc1)NN1C(=O)/C(=C\c2ccc(O)cc2)S/C1=N\c1ccccc1	> 100 µM (inactive)	> 100 µM (inactive)	> 100 µM (inactive)	> 100 µM (inactive)	> 100 µM (inactive)	> 100 µM (inactive)	> 100 µM (inactive)	> 100 µM (inactive)	> 100 µM (inactive)	> 100 µM (inactive)	–	41 µM (inactive)	> 100 µM (inactive)	84.1 µM (inactive)	–	> 100 µM (inactive)
Nc1c2c(=O)[nH]c(=O)c2c(N)c2c(=O)c3ccccc3c(=O)c12	1.12 µM (inactive)	0.897 µM (active)	1.99 µM (inactive)	1.56 µM (inactive)	4.6 µM (inactive)	3.13 µM (inactive)	2.62 µM (inactive)	0.243 µM (active)	0.478 µM (active)	1.85 µM (inactive)	2.49 µM (inactive)	3.94 µM (inactive)	3.61 µM (inactive)	1.16 µM (inactive)	2.74 µM (inactive)	2.04 µM (inactive)
CC1(c2nc3ccccc3[nH]2)CCC(CO)C(C)(C)O1 (configuration not stated)	–	> 100 µM (inactive)	> 100 µM (inactive)	> 100 µM (inactive)	> 100 µM (inactive)	> 100 µM (inactive)	> 100 µM (inactive)	> 100 µM (inactive)	> 100 µM (inactive)	> 100 µM (inactive)	> 100 µM (inactive)	> 100 µM (inactive)	> 100 µM (inactive)	> 100 µM (inactive)	16.1 µM (inactive)	> 100 µM (inactive)
CC1(C)C[C@H]2C=C(C=O)[C@]34C[C@]3(C(=O)OC4O)[C@H]2C1 (some centres not stated)	3.06 µM (inactive)	2.83 µM (inactive)	1.97 µM (inactive)	2.22 µM (inactive)	1.14 µM (inactive)	14.2 µM (inactive)	3.21 µM (inactive)	1.44 µM (inactive)	2.35 µM (inactive)	6.61 µM (inactive)	2.84 µM (inactive)	0.459 µM (active)	8.77 µM (inactive)	1.38 µM (inactive)	2.56 µM (inactive)	1.68 µM (inactive)
COc1cc(OC)c2nc(C)c3c(c2c1)OCC3	> 100 µM (inactive)	> 100 µM (inactive)	> 100 µM (inactive)	> 100 µM (inactive)	80.7 µM (inactive)	37.7 µM (inactive)	47.4 µM (inactive)	> 100 µM (inactive)	> 100 µM (inactive)	> 100 µM (inactive)	> 100 µM (inactive)	> 100 µM (inactive)	35 µM (inactive)	> 100 µM (inactive)	> 100 µM (inactive)	86.7 µM (inactive)
COc1ccc(/C=N/n2cnc3[nH]c(C)c(Cc4ccccc4)c3c2=N)cc1	67.8 µM (inactive)	89.5 µM (inactive)	75 µM (inactive)	> 100 µM (inactive)	> 100 µM (inactive)	> 100 µM (inactive)	80.9 µM (inactive)	> 100 µM (inactive)	> 100 µM (inactive)	> 100 µM (inactive)	> 100 µM (inactive)	30.1 µM (inactive)	86.1 µM (inactive)	39.1 µM (inactive)	> 100 µM (inactive)	–
Cc1[nH]nc(-c2ccon2)c1N=O	> 100 µM (inactive)	23.7 µM (inactive)	18.6 µM (inactive)	21.4 µM (inactive)	23.1 µM (inactive)	21 µM (inactive)	26.9 µM (inactive)	20.8 µM (inactive)	20.5 µM (inactive)	14.6 µM (inactive)	25.3 µM (inactive)	25.1 µM (inactive)	17.9 µM (inactive)	22.9 µM (inactive)	10 µM (inactive)	17.9 µM (inactive)
CC(C)CCNC(=O)c1ccc(CNC(=O)/C=C/c2ccc(OCc3ccccc3)cc2)cc1	> 100 µM (inactive)	> 100 µM (inactive)	–	> 100 µM (inactive)	> 100 µM (inactive)	> 100 µM (inactive)	–	> 100 µM (inactive)	> 100 µM (inactive)	39.9 µM (inactive)	> 100 µM (inactive)	> 100 µM (inactive)	> 100 µM (inactive)	> 100 µM (inactive)	> 100 µM (inactive)	–
COC(=O)C(Cc1ccc(O)cc1)NC(=O)C(COCc1ccccc1)NC(=O)OCc1ccccc1 (configuration not stated) (Cbz-Ser(Bn)-Tyr-OMe; configuration not given here)	26.3 µM (inactive)	19.4 µM (inactive)	72.3 µM (inactive)	17.3 µM (inactive)	20.9 µM (inactive)	19 µM (inactive)	24.6 µM (inactive)	19.4 µM (inactive)	19.1 µM (inactive)	20.1 µM (inactive)	19.1 µM (inactive)	17.7 µM (inactive)	18.7 µM (inactive)	19.3 µM (inactive)	> 100 µM (inactive)	18.8 µM (inactive)
CCCCN(CC)c1nc(C)nc2c1c(C)c(C)n2-c1c(C)cc(C)cc1C [ANTALARMIN]	16.9 µM (inactive)	14.2 µM (inactive)	19.7 µM (inactive)	16.6 µM (inactive)	10.1 µM (inactive)	17.2 µM (inactive)	16.9 µM (inactive)	17.9 µM (inactive)	17.1 µM (inactive)	14.8 µM (inactive)	13.5 µM (inactive)	10.7 µM (inactive)	11.7 µM (inactive)	–	8.45 µM (inactive)	2.69 µM (inactive)
